Here are results for 24 compounds from patent US10457688B2, “Monocyclic thieno, pyrido, and pyrrolo pyrimidine compounds and methods of use and manufacture of same” (Duquesne University of the Holy Spirit, priority 2015, dated 2019).

Where two headings read alike, the source gives them in different places.

In general, EC50 refers to the concentration giving half of the maximal effect.

For test [1], the system named is RT16 CHO cells expressing human FRα. Particulars: cited from earlier work.
For test [2] the test system is unchanged. Put plainly: growth inhibition, CHO RT16 (FRα). Format: cell-based, Chinese hamster.
In test [3] the test system is PC43-10 CHO cells expressing human RFC. Put plainly: growth inhibition, CHO PC43-10 (human RFC). Format: cell-based, Chinese hamster.
Test [4] concerns KB human tumor cells (RFC/FRα/PCFT). The experiment in a line: growth inhibition, KB tumor cells. Format: cell-based. An excerpt:
The experiments with the CHO sublines were extended to KB human nasopharengeal carcinoma cells which express highly elevated FRα, along with RFC and PCFT.

Test [5] has as its system D4 CHO cells expressing FRβ. Put plainly: growth inhibition, CHO D4 (FRβ). It counts as cell-based, Chinese hamster.
Test [6] deals with cellular microtubules in A-10 cells. The experiment in a line: cellular microtubule depolymerization, cell-based phenotypic assay. The settings on record: Rattus norvegicus.
For the next test, the system named is MDA-MB-435 cancer cells. The experiment in a line: antiproliferative sulforhodamine B assay (SRB assay), MDA-MB-435. It counts as cell-based. The settings on record: Homo sapiens. In general terms: The SRB assay estimates cell density from bound dye.
Test [7] concerns R2/PCFT4 CHO cells expressing human PCFT. Put plainly: growth inhibition, CHO R2/PCFT4 (PCFT). Format: cell-based, Chinese hamster. Particulars: Section III Table 1.
Test [8] deals with R2(VC) CHO cells (transporter-null). Put plainly: growth inhibition, vector control R2(VC) CHO cells. Format: cell-based, Chinese hamster. Particulars: Cricetulus griseus, Section IV Table 1.
Where [9] appears, read: Section IV Table 1, +FA, read-out: RT16 (+FA) IC50.
Setting [10] is: Section IV Table 1, read-out: RT16 IC50 (FRα).
Setting [11] is: Section IV Table 1, +FA, read-out: KB (+FA) IC50.
The mark [12] stands for this setting: Section IV Table 1, read-out: KB IC50 (RFC/FRα/PCFT).
Where [13] appears, read: A10, read-out: EC50 for Microtubule Depolymerization in A-10 Cells.
[14] abbreviates: A10, read-out: EC50 in A-10 cells (Loss of cellular microtubules).
[15] abbreviates: A10, read-out: EC50 in A-10 cells (Tubulin polymerization inhibitory activity).
The mark [16] stands for this setting: MDA-MB-435, read-out: IC50 ± SD (MDA-MB-435) Tumor cells.
Setting [17] is: read-out: IC50 ± SD in MDA-435 Cells.
The mark [18] stands for this setting: A10, Section VIII Table 1, read-out: EC50 in A-10 cells (Loss of cellular microtubules).
[19] abbreviates: MDA-MB-435, Section VIII Table 1, read-out: IC50 + SD (MDA-MB-435) cancer cells.
Setting [20] is: Homo sapiens, PC43-10, Section III Table 1.
The mark [21] stands for this setting: A10, Section VII Table 1, read-out: EC50 for Microtubule Depolymerization in A-10 Cells.
Where [22] appears, read: A10, Section VII Table 2, read-out: EC50 in A-10 cells (Tubulin polymerization inhibitory activity).
Where [23] appears, read: MDA-MB-435, Section VII Table 2, read-out: IC50 ± SD (MDA-MB-435) Tumor cells.
Setting [24] is: Section VII Table 1, read-out: IC50 ± SD in MDA-435 Cells.

As to `Nc1nc2[nH]c(CCCc3ccc(C(=O)N[C@@H](CCC(=O)O)C(=O)O)cc3)cc2c(=O)[nH]1` [AGF17], in [1], the “selectivity for FR transport over RFC” value was 25 fold.

`Nc1nc2[nH]c(CCOc3cccc(C(=O)N[C@@H](CCC(=O)O)C(=O)O)c3)cc2c(=O)[nH]1` [AGF220]: the IC50 in test [2] (setting [9]) was more than 1000 nM; in test [2] (setting [10]), 30.3 nM; in [3] (Section IV Table 1), more than 1000 nM; in test [4] (setting [11]), more than 1000 nM; in test [4] (setting [12]) it was 13.1 nM.

With `Nc1nc2[nH]c(CCNc3cccc(C(=O)N[C@@H](CCC(=O)O)C(=O)O)c3)cc2c(=O)[nH]1` [AGF256], the IC50 in [2] (setting [9]) was more than 1000 nM; in test [2] (setting [10]), 15.9 nM; in [3] (Section IV Table 1), more than 1000 nM; in [5] (Section IV Table 1, +FA, read-out: D4 (+FA) IC50), more than 1000 nM; in test [5] (Section IV Table 1, read-out: D4 IC50 (FRβ)), 4.19 nM; in test [4] (setting [11]), more than 1000 nM. For the same compound, the IC50 in test [4] (setting [12]) worked out at 14.8 nM.

With `CSc1ccc(N(C)c2nc(C)nc3cc[nH]c23)cc1` [Compound 4], the IC50 is 1.72 nM in [2] (Cricetulus griseus, RT16, read-out: R16 IC50 (FRα)); 6.11 nM in [5] (Cricetulus griseus, CHO, read-out: D4 IC50 (FRβ)); 6.13 nM in test [4] (Homo sapiens, read-out: KB IC50 (FRα/PCFT/RFC)); 4 ± 0.5 nM with MDA-MB-435 cancer cells (MDA-MB-435, read-out: IC50 + SD (MDA-MB-435) cancer cells); 4.4 ± 0.2 nM in the test with MDA-MB-435 cancer cells (setting [16]); 4.4 ± 0.2 nM in the test on MDA-MB-435 cancer cells (setting [17]). Moreover, the EC50 in [6] (setting [13]) worked out at 42 nM; in [6] (setting [14]), 10 nM; in [6] (setting [15]), 42 nM.

On to `COc1cccc2cc(N(C)c3nc(C)nc4sccc34)ccc12` [Compound 6], for which the EC50 in test [6] (setting [18]) came out at 2.5 nM. For the same compound, the IC50 with MDA-MB-435 cancer cells (setting [19]) amounted to 3.8 nM.

With `CSc1ccc(N(C)c2ncnc3ccsc23)cc1` [Compound 6], the IC50 in test [3] (setting [20]) was 207 nM; in test [7] it was 8.23 nM; in the test with MDA-MB-435 cancer cells (setting [23]), 28.2 ± 5.5 nM; with MDA-MB-435 cancer cells (setting [24]) it was 28.2 ± 5.5 nM. Besides, the EC50 in test [6] (setting [21]) and in test [6] (setting [22]) was 707 nM in each case.

Regarding `COc1ccc(Nc2nc(C)nc3sc(C)c(C)c23)cc1` [Compound 7], the concentration giving a half-maximal response (EC50) in test [6] (setting [18]) is more than 10000 nM.

Consider `COc1ccc2c(c1)CCCN2c1nc(C)nc2ccsc12` [Compound 7], for which the IC50 in test [4] (Homo sapiens, Section VI Table 1, read-out: KB IC50 (FRα/PCFT/RFC)) came to 38.9 nM; in the test on MDA-MB-435 cancer cells (setting [23]) it was 3.4 ± 0.9 nM; in the test on MDA-MB-435 cancer cells (setting [24]) it was 3.4 ± 0.9 nM. For the same compound, the EC50 in test [6] (setting [21]) and in test [6] (setting [22]) was 8 nM throughout.

Consider `COc1ccc(N(C)c2nc(C)nc3sc(C)c(C)c23)cc1` [Compound 8], for which, in [6] (setting [18]), the EC50 was found to be 18 nM. Besides, in the test on MDA-MB-435 cancer cells (setting [19]), the IC50 stood at 10.7 ± 1 nM.

Consider `CSc1ccc2c(c1)CCCN2c1ncnc2ccsc12` [Compound 8], for which the EC50 in test [6] (setting [21]) and in test [6] (setting [22]) was 22 nM throughout. Further, the IC50 in the test on MDA-MB-435 cancer cells (setting [23]) and in the test with MDA-MB-435 cancer cells (setting [24]) was 3.8 ± 0.3 nM each time.

As for `COc1ccc2c(c1)OCCN2c1nc(C)nc2ccsc12` [Compound 9], the EC50 in test [6] (setting [21]) and in test [6] (setting [22]) was 237 nM in each case. The IC50 with MDA-MB-435 cancer cells (setting [24]) turned out to be 109 nM.

Consider `CSc1ccc(N(C)c2nc(C)nc3sc(C)c(C)c23)cc1` [Compound 9], for which, in test [6] (setting [18]), the EC50 is 128 nM. The IC50 in the test on MDA-MB-435 cancer cells (setting [19]) worked out at 34.8 ± 3.7 nM.

For the compound `COc1ccc2c(c1)CCCN2c1nc(C)nc2sc(C)c(C)c12` [Compound 10], the EC50 in test [6] (setting [18]) is more than 10000 nM.

Take `COc1cccc2cc(N(C)c3nc(C)nc4ccsc34)ccc12` [Compound 10]: the EC50 in test [6] (setting [21]) and in test [6] (setting [22]) was 3 nM in each case. Besides, the IC50 in the test with MDA-MB-435 cancer cells (setting [23]) and in the test with MDA-MB-435 cancer cells (setting [24]) was 1.7 ± 0.2 nM each time.

With `COc1ccc2c(c1)OCCN2c1nc(C)nc2sc(C)c(C)c12` [Compound 11], the EC50 in [6] (setting [18]) stood at 1200 nM.

As to `COc1cccc2cc(N(C)c3ncnc4ccsc34)ccc12` [Compound 11], the EC50 in test [6] (setting [21]) was 61 nM. In addition, the IC50 in the test on MDA-MB-435 cancer cells (setting [16]) and with MDA-MB-435 cancer cells (setting [17]) was 15.7 ± 2.2 nM in each case.

In turn, `CN(Cc1cnc2nc(N)nc(N)c2n1)c1ccc(C(=O)N[C@@H](CCC(=O)O)C(=O)O)cc1` [MTX, methotrexate, reference compound] came in with an IC50 in test [8] of more than 1000 nM.

In the case of `Nc1nc2[nH]cc(CCc3ccc(C(=O)N[C@@H](CCC(=O)O)C(=O)O)cc3)c2c(=O)[nH]1` [PMX, pemetrexed, reference compound], the IC50 in [3] (setting [20]) turned out to be 30.6 nM; in test [4] (Homo sapiens, Section III Table 1, read-out: KB IC50 (RFC/FRα/PCFT)), 9.94 nM.

Consider `Cc1nc2ccc(CN(C)c3ccc(C(=O)N[C@@H](CCC(=O)O)C(=O)O)s3)cc2c(=O)[nH]1` [RTX, raltitrexed], for which the IC50 in test [8] is more than 1000 nM.

As for `COc1ccc(N(C)c2nc(C)nc3cc[nH]c23)cc1` [compound 1], the IC50 in the test with MDA-MB-435 cancer cells (setting [23]) was 96.6 ± 5.3 nM; in the test on MDA-MB-435 cancer cells (setting [24]) it was 96.6 nM.

Consider `COc1ccc(N(C)c2nc(C)nc3ccsc23)cc1` [compound 2], for which the EC50 in test [6] (setting [13]) and in test [6] (setting [15]) was 27 nM in each case. The IC50 in the test with MDA-MB-435 cancer cells (setting [16]) and in the test with MDA-MB-435 cancer cells (setting [17]) was 7 ± 2.7 nM in each case.

Turning to `CSc1ccc(Nc2nc(C)nc3sccc23)cc1` [compound 2], the EC50 in test [6] (setting [14]) is more than 10000 nM.

Take `COc1ccc(N(C)c2nc(C)nc3sccc23)cc1` [compound 3]: the EC50 in test [6] (setting [18]) was determined as 15.4 nM. The IC50 in the test on MDA-MB-435 cancer cells (setting [19]) stood at 7.6 nM.

As for `CSc1ccc(Nc2nc(C)nc3cc[nH]c23)cc1` [compound 3], the half-maximal effective concentration (EC50) in [6] (setting [21]) and in test [6] (setting [22]) was 25000 nM in each case. Further, the IC50 in the test on MDA-MB-435 cancer cells (setting [23]) and in the test with MDA-MB-435 cancer cells (setting [24]) was 2100 ± 70 nM in each case.
